Test results taken from patent US12329799B2, “Peptidyl inhibitors of calcineurin-NFAT interaction” (Ohio State Innovation Foundation, priority 2018, dated 2025).
Positions of bridges follow the written chain, without caps; N, C: chain ends. Non-standard residues stand in square brackets, D forms with d. Residues, ends and D or L forms follow the SMILES beside them. Chains are numbered I, II in the order given. *: point of attachment. Benzoyl(2,3-Cl2) = O=C(c1cccc(Cl)c1Cl)*; 2Nal = N[C@@H](Cc1ccc2ccccc2c1)C(=O)O; Tle = CC(C)(C)[C@H](N)C(=O)O; βAla = NCCC(=O)O

Key:
[1] = test system: NFAT-mediated luciferase expression in Jurkat cells; assay: NFAT luciferase assay in Jurkat cells; format: cell-based; settings: 10 μM, Jurkat cells
Experimental: In a separate experiment, CNI93 was also tested against Jurkat cells expressing a luciferase gene under the transcriptional control of NFAT.
NFAT Luciferase Assay. Jurkat-Lucia cells maintained in RPMI-1640 supplemented with 10% FBS, 1% penicillin/streptomycin (v/v/v) and 100 μg/mL normocin were harvested after a passage with 50 μg/mL selective antibiotic Zeocin at 300×RCF for 5 min. Cells were resuspended in warm RPMI-1640 with antibiotics but without FBS to a final density of 2×10^6 cells/mL and seeded into white-on-white cell-culture treated 96-well plates. To each well was added 10 μL of DPBS containing compounds which dilute to the desired concentrations followed by 170 μL of cell suspension […] and incubated at 37° C. for 2 h. The cells were induced by treatment with 50 ng/mL PMA and 3 μg/mL ionomycin, Ca^2+ salt in FBS to achieve a final FBS concentration of 10% in each well (with FBS only as control). The plate was incubated for an additional 4 h at 37° C., when 20 μL of each sample was withdrawn and mixed with 50 μL of Quanti-Luc assay solution. The luminescence of the mixture was immediately measured on a Tecan Infinite M1000 plate reader.

[2] = Maximum tolerated dose (body weight over 10 days); format: in vivo
[3] = molecular target: T1, Calcineurin (GST-CN) (Homo sapiens, UniProt Q08209); assay: Direct binding of FITC-labeled peptides to CN by fluorescence anisotropy/polarization
T1 construct: made in house; host or cells: E. coli BL21
Experimental: To facilitate concentration determination and binding analysis by fluorescence anisotropy (FA), a dipeptide Tyr-Lys was added to the C-terminus of ZIZIT (SEQ ID NO:1) and the lysine side chain was labeled with fluorescein isothiocyanate (FITC). The resulting peptide,
Fluorescence Polarization. Fluorescence polarization (FP) experiments were carried out to measure binding affinity in both direct and competitive binding experiments using GST-CN and peptides prepared as mentioned previously. For direct binding, 50 nM FITC-labeled peptide was prepared in PBS, pH 7.4 containing 5 mM DTT and 0.01% Triton-X100 and then added to GST-CN diluted in PBS containing 0.01% Triton-X100. Solutions were incubated for 1 h at RT with gentle mixing and then pipetted into black 384-well microplates. Fluorescence polarization was measured on a TECAN Infinite M1000 plate reader and titration curves were fitted using both KaelidaGraph v 3.6 and GraphPad PRISM to the equation:
[formula] • where FP is the measured fluorescence polarization, Amin is the minimum FP value, Amax is the maximum FP signal, Qb is the quantum yield of the bound fluorophore, Qf is the quantum yield of the free fluorophore, L is the ligand concentration, KD is the dissociation constant and x is the protein concentration.

T1 sequence (Q08209 2-347 limits assumed): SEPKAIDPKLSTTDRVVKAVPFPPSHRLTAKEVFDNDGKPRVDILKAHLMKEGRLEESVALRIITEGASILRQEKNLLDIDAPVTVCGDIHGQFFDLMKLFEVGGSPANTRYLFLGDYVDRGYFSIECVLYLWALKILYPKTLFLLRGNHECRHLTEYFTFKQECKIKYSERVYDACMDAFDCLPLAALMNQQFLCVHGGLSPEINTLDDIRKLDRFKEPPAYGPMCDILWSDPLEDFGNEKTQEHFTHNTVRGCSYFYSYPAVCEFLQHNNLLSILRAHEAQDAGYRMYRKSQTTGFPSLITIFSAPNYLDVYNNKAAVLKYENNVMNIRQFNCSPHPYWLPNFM

## CC[C@H](C)[C@H](NC(=O)[C@@H](NC(=O)c1cccc(Cl)c1Cl)C(C)(C)C)C(=O)N[C@H](C(=O)N[C@H](C(=O)N[C@H](C(=O)N[C@@H](CCC(N)=O)C(=O)N[C@@H](Cc1c[nH]cn1)C(=O)N[C@H](CC(C)C)C(=O)N[C@@H](CO)C(=O)NCCC(=O)N[C@@H](CCCCNC(=O)CC[C@@H]1NC(=O)[C@@H](CCCNC(=N)N)NC(=O)[C@H](CCCNC(=N)N)NC(=O)[C@@H](CCCNC(=N)N)NC(=O)[C@H](CCCNC(=N)N)NC(=O)[C@H](Cc2ccc3ccccc3c2)NC(=O)[C@@H](Cc2ccccc2)NC1=O)C(N)=O)[C@@H](C)O)[C@@H](C)CC)C(C)(C)C [CNI93] (I: {Benzoyl(2,3-Cl2)}-[Tle]I[Tle]ITQH[dL]S[βAla]K-NH2 / II: cyclo([2Nal]R[dR]R[dR]E[dF]); amide I:11-II:6 (inferred); ring closure inferred)
[1]
  phorbol ester- and ionomycin-induced expression of luciferase: potently inhibited
[2]; intranasal 10 mg/kg
  body weight: steady increase in body weight similar to healthy controls
  survival and signs of distress: survived and showed no visible sign of distress
[2]; intranasal 50 mg/kg
  body weight: steady increase in body weight similar to healthy controls
  survival and signs of distress: survived and showed no visible sign of distress
[3]
  lower CN-binding affinity relative to peptide 14: 8 fold
